Laboratory results reported in PMC9227781, “Inhibitors of O-Acetylserine Sulfhydrylase with a Cyclopropane-Carboxylic Acid Scaffold Are Effective Colistin Adjuvants in Gram Negative Bacteria” (Pharmaceuticals, 2022).
≈ marks a conversion by molar mass, not a printed value.

Key:
StOASS-A = target: T1, StOASS-A (Salmonella typhimurium, UniProt P0A1E3); test: Fluorescence binding assay on purified recombinant StOASS-A; parameters: species or system S. Typhimurium; conditions: 20 °C, 100 mM HEPES, 5% DMSO, pH 7.0; racemic mixture; esters tested up to 100 μM
T1 construct: His-tag (with TEV site) (cleaved yes); made in house; host or cells: E. coli Rosetta (DE3)
Method: (§1) The affinity of the compounds for StOASS-A and StOASS-B was determined on the purified recombinant proteins by an in vitro fluorescence binding assay. Measurements were carried out at 20 °C in a 3 mm pathlength quartz microcuvette in 100 mM HEPES, 5% DMSO (Applichem, Darmstadt, Germany), pH 7.0, using a Fluoromax-4 (Horiba Jobin-Yvon, Kyoto, Japan) spectrofluorometer. Emission spectra of solutions containing 0.2–1.0 μM StOASS, upon excitation of the pyridoxal 5′-phosphate cofactor at 412 nm, in the presence of increasing concentrations of compounds were collected; fluorescence intensities at 500 nm were plotted to compound concentration and data were fitted to a binding isotherm: I=I0+ΔI·compound/KD+compound where I is the fluorescence emission intensity at 500 nm in the presence of a given concentration of compound, I0 is the initial fluorescence emission in the absence of ligands, ΔI is the amplitude of the fluorescence emission change and KD is the dissociation constant. When the KD was lower than the protein concentration, data were fitted to the quadratic equation: I=I0+ΔI·OASS+compound+KD−OASS+compound+KD^2−4·OASS·compound/2
(§2) Data were collected in duplicate.
(§3) Esters were tested up to a concentration of 100 μM and no binding was observed.

StOASS-B = target: T2, StOASS-B (Salmonella typhimurium, UniProt P29848); test: Fluorescence binding assay on purified recombinant StOASS-B; conditions: 20 °C, 100 mM HEPES, 5% DMSO, pH 7.0; racemic mixture; esters tested up to 100 μM
T2 construct: His-tag (with TEV site) (cleaved yes); made in house; host or cells: E. coli Rosetta (DE3)
T2 sequence (P29848 1-303): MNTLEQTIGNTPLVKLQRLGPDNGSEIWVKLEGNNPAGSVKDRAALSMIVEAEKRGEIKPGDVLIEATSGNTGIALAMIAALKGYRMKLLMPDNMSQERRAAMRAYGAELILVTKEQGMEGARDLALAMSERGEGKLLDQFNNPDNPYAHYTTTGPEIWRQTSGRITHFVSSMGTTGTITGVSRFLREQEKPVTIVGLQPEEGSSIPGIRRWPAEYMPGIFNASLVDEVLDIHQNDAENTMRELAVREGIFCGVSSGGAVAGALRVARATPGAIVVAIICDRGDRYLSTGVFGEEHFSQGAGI
Method: as §1, §2, §3

E. coli ATCC 25922 = test: MIC by broth microdilution, E. coli; assay type: cell-based, Escherichia coli; conditions: compound alone, MHB, 24 h at 37 °C; for MIC: Escherichia coli, ATCC25922, read-out: MIC (μg/mL) E.coli ATCC 25922
Method: (§4) MIC values were evaluated following CLSI guidelines with some modifications, as referred to in previous work. Twofold dilutions 25.6–0.05 mg/mL of the tested compounds were performed in DMSO in separate 96-well microtiter U-plates (Greiner, Milan, Italy). In a different 96-well microtiter U-plate, for each well of the replicates, 49 µL of broth medium were added. Then, in each well of the plate, one microliter of each compound at variable dilution in DMSO was added. For each test, three independent experiments with three replicates each were performed. Tested reference bacterial strains (E. coli ATCC25922; S. Typhimurium ATCC14028; K. pneumoniae ATCC13883) were brought to the logarithmic phase of growth in MHB medium by incubation at 37 °C for 24 h. After incubation, bacterial suspensions were centrifuged (2000 rpm, 4 °C for 20 min), and then the pellets were resuspended in 100 mM phosphate buffer, pH 7.0, to reach a final bacterial concentration of 10^8 CFU/mL, adjusted by spectrophotometry (OD620nm ranged between 0.08–0.13). The obtained suspensions were further diluted 1:100 in broth medium to reach a bacterial concentration of 10^6 CFU/mL. Fifty µL of the bacterial suspension containing 10^6 CFU/mL were inoculated into each well within 30 min, to obtain a final concentration of 5 × 10^5 CFU/mL in a total volume of 100 µL. The final dilution range tested was 256–0.5 µg/mL. Growth and sterility controls were performed for each strain and for each tested compound. Plates were then incubated for 24 h at 37 °C in a static aerobic atmosphere. After incubation, plates were read by unaided eye with a microtiter reading mirror and then the OD of each well of the plates was measured spectrophotometrically at 620 nm. MIC values were calculated as the arithmetic mean ± standard deviation (SD) of the unaided eye reading and the inhibition of growth for each tested dilution was calculated from the OD values (mean ± SD). A quality control microorganism (E. coli ATCC 25922) was tested periodically to validate the accuracy of the procedure.

S. Typhimurium ATCC14028 = test: MIC by broth microdilution, S. Typhimurium; assay type: cell-based, Salmonella enterica serovar Typhimurium; conditions: compound alone, MHB, 24 h at 37 °C; for MIC: Salmonella enterica, read-out: MIC (μg/mL) S. Typhimurium ATCC14028
Method: as §4

K. pneumoniae ATCC13883 = test: MIC by broth microdilution, K. pneumoniae; assay type: cell-based, Klebsiella pneumoniae; conditions: compound alone, MHB, 24 h at 37 °C; for MIC: Klebsiella pneumoniae, ATCC13883, read-out: MIC (μg/mL) K. pneumoniae ATCC13883
Method: as §4

MDBK cells = test: Cytotoxicity assay (MTT) on MDBK cells; assay type: cell-based, bovine; conditions: 32, 16, 8 µg/mL; MTT test
Method: The cytotoxicity assay was performed using the 3-(4,5-dimethylthiazol-2-yl)-2,5-diphenyltetrazolium bromide (MTT) test, following the procedure used by Donofrio et al.. MDBK cells were cultured on microtiter tissue culture plates in DMEM medium for 24 h at 37 °C in the presence of 5% CO2. After incubation, when the cell monolayer was at confluence, an aliquot of 1 µL of UPAR415 in DMSO at different concentrations was added in each well, containing a volume of 100 µL of DMEM medium and MDBK cells, and then the plates were reincubated at the same conditions. After incubation, 10 µL of MTT at 200 mg/mL (3-(4,5-dimethylthiazol-2-yl)-2,5-diphenyltetrazolium bromide) was added to each well and incubated at 37 °C for 6 h. At the end of the incubation, 100 µL of the solubilization solution (10% SDS in 0.01 M HCl) was added to each well and then incubated overnight. The MTT compound, a yellow tetrazolium salt, is reduced by mitochondrial enzymes (succinate dehydrogenase) of metabolically active eukaryotic cells to insoluble formazan crystals. In the presence of metabolically active cells, after the addition of a detergent solution (10% SDS in […]) that allows the formazan to be released from the cells, a violet color is seen in the medium. Instead, in the presence of non-viable cells, MTT is not reduced to formazan and therefore the solution will remain yellow.
After incubation, plates were read with a spectrophotometer at 620 nm. Positive controls (PC)—without any compounds—and PCs with 1% DMSO were performed for each plate and three replicates for two independent experiments were performed for each assay.

T1 sequence (P0A1E3 whole entry): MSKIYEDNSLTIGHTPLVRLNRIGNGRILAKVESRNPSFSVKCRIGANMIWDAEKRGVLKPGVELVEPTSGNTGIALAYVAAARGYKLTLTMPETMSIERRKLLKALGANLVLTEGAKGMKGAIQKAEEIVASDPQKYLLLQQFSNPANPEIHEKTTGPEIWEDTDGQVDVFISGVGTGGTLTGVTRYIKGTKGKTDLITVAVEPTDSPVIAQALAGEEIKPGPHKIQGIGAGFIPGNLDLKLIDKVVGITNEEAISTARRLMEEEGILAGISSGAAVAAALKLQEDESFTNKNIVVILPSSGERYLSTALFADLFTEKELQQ

Compound	KD (μM) OASS-A (StOASS-A)	KD (μM) OASS-B (StOASS-B)	MIC (E. coli ATCC 25922) [µg/mL]	MIC (S. Typhimurium ATCC14028) [µg/mL]	MIC (K. pneumoniae ATCC13883) [µg/mL]	Toxicity on viability of MDBK cells (MDBK cells)	MIC (μg/mL) E.coli ATCC 25922 (E. coli ATCC 25922)	MIC (μg/mL) S. Typhimurium ATCC14028 (S. Typhimurium ATCC14028)	MIC (μg/mL) K. pneumoniae ATCC13883 (K. pneumoniae ATCC13883)
CCOC(=O)[C@]1(Cc2ccc(C)cc2)C[C@H]1c1cccc(N2CCN(C)CC2)c1 (relative stereo) [Compound 20j, trans-ethyl 1-(4-methylbenzyl)-2-(3-(4-methylpiperazin-1-yl)phenyl)cyclopropanecarboxylate]	No binding	No binding	> 512	> 512	> 512	high toxicity profiles			
CCOC(=O)C1(Cc2ccc(C)cc2)CC1c1cccc(-c2c[nH]nc2C)c1 (stereo not drawn) [Compound 8b, ethyl 2-(3-(3-methyl-1H-pyrazol-4-yl)phenyl)-1-(4-methylbenzyl)cyclopropanecarboxylate]	No binding	No binding	> 512	> 512	> 512	high toxicity profiles			
CCOC(=O)[C@]1(Cc2ccc(C)cc2)C[C@H]1c1cccc(-c2cc(O)cc(F)c2)c1 (relative stereo) [Compound 8e, trans-ethyl 2-(3′-fluoro-5′-hydroxy-[1,1′-biphenyl]-3-yl)-1-(4-methylbenzyl) cyclopropanecarboxylate]	No binding	No binding	> 512	> 512	> 512	high toxicity profiles			
CCOC(=O)[C@]1(Cc2ccc(C)cc2)C[C@H]1c1cccc(-c2cccc(F)c2)c1 (relative stereo) [Compound 8f, trans-ethyl 2-(3′-fluoro-[1,1′-biphenyl]-3-yl)-1-(4-methylbenzyl)cyclopropanecarboxylate]	No binding	No binding	> 512	> 512	> 512	proliferative effects			
CCOC(=O)[C@]1(Cc2ccc(C)cc2)C[C@H]1c1cccc(-c2cn[nH]c2)c1 (relative stereo) [Compound 8c, trans-ethyl 2-(3-(1H-pyrazol-4-yl)phenyl)-1-(4-methylbenzyl)cyclopropanecarboxylate]	No binding	No binding	> 512	> 512	> 512	high toxicity profiles			
CCOC(=O)[C@]1(Cc2ccc(C)cc2)C[C@H]1c1cccc(N2CCNCC2)c1 (relative stereo) [Compound 20i, trans-ethyl 1-(4-methylbenzyl)-2-(3-(piperazin-1-yl)phenyl)cyclopropanecarboxylate]	No binding	No binding	40 (≈ 106 µM)	36 (≈ 95.1 µM)	32 (≈ 84.5 µM)	high toxicity profiles	measurable antimicrobial activity	measurable antimicrobial activity	measurable antimicrobial activity
CCOC(=O)[C@]1(Cc2ccc(C)cc2)C[C@H]1c1cccc(N2CCOCC2)c1 (relative stereo) [Compound 12g, trans-ethyl 1-(4-methylbenzyl)-2-(3-morpholinophenyl)cyclopropanecarboxylate]	No binding	No binding	> 512	> 512	> 512	proliferative effects			
